Laboratory results published in patent US20120270819A1, “USE OF COMPOUNDS WITH SGLT-1/SGLT-2 INHIBITOR ACTIVITY FOR PRODUCING MEDICAMENTS FOR TREATMENT OF BONE DISEASE” (SANOFI, priority 2009, published 2012).

Target: T1, human sodium-dependent glucose transporter 2 (SGLT2, SLC5A2) (Homo sapiens, UniProt P31639)
T1 construct: Bases 21 to 2039 correspond to the complete coding region of human SGLT2; expressed in transfected cells; host or cells: CHO-TREx cells (Invitrogen), pcDNA4/TO vector, tetracycline-induced
T1 sequence (P31639 1-672): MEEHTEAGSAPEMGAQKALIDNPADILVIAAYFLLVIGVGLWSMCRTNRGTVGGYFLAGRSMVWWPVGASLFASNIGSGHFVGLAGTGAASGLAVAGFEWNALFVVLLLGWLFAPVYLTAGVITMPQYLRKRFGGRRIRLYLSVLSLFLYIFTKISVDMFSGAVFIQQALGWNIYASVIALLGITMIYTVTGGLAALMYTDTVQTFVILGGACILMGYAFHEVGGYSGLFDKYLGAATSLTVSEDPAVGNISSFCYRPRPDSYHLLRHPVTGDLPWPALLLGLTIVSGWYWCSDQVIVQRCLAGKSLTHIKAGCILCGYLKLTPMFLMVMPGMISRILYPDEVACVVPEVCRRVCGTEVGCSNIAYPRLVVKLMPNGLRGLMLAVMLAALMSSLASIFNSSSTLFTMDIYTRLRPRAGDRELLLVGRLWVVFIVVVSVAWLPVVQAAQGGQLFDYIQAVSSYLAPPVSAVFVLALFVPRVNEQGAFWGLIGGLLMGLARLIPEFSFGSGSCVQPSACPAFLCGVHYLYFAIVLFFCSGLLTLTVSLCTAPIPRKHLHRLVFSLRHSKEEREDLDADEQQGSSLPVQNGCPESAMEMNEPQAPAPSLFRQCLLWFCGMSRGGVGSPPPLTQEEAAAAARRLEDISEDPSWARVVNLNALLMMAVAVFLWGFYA
Test: Inhibition of methyl-D-glucopyranoside uptake in CHO-TRex-hSGLT2 cells
Assay type: cell-based
Details: recombinant SGLT2; read-out: IC50 SGLT 2
Excerpt: Inhibition of the Transport Activity of the Human Sodium-Dependent Glucose Transporter 2 (SGLT2, SLC5A2) In Vitro
1. Cloning of an Expression Vector for Human SGLT2
The cDNA for human SGLT2 was introduced into the pcDNA4/TO vector (Invitrogen) by means of standard methods of molecular biology as described in Sambrook et al. (Molecular Cloning, A Laboratory Manual, Second Edition). […] Bases 21 to 2039 correspond to the complete coding region of human SGLT2.
2. Production of a Recombinant Cell Line with Inducible Expression of Human SGLT2
The expression vector for human SGLT2 was introduced into CHO-TREx cells (Invitrogen) by means of FuGene6 lipofection (Roche). To select single cell clones, 600 μg/ml of Zeocin (Invitrogen) was added to the cell culture medium (nutrient mixture F-12 (Ham), (Invitrogen) supplemented with 10% fetal calf serum (FBS Gold, PAA), 10 μg/ml Blasticidin S(CN Biosciences), 100 units/ml penicillin, 100 units/ml streptomycin). The functionality of the single cell clones resulting from the selection was tested via their uptake activity for radiolabeled methyl- -D-glucopyranoside. That cell clone with the highest uptake activity for methyl- -D-glucopyranoside, referred to hereinafter as CHO-TRex-hSGLT2, was selected for the further experiments and cultured further in the presence of 600 μg/ml Zeocin.
3. Measurement of the Inhibiting Action of Test Substances on the Uptake of Methyl- -D-glucopyranoside (-MDG)
CHO-TRex-hSGLT2 cells were seeded in cell culture medium in a concentration of 50 000 cells per well in Cytostar-T scintillating 96-well plates (Amersham Biosciences) and cultivated for 24 h. The expression of the recombinant human SGLT2 was induced by adding 1 μg/ml tetrazykline for a further 24 h. For -MDG uptake experiments, the cells were washed with PBS and then starved at 37° C. in starvation medium (PBS supplemented with 10% fetal calf serum) for 1 hour. […] After an incubation time of 120 min at 37° C., the reaction was stopped by adding 50 μl/well of 10 mM methyl- -D-glucopyranoside in transport assay buffer (4° C.), and the radioactivity taken up into the cells was determined in a MicroBeta Scintillation Microplate Reader (Wallac). The half-maximum inhibiting action of the test substances (IC50 value) was determined as follows:
4. […] This is the measurement in the absence of substance, measured in sodium-containing transport assay buffer.
5. […] This is the measurement in the absence of substance, measured in sodium-free transport assay buffer (140 mM choline chloride, 2 mM potassium chloride, 1 mM magnesium chloride, 1 mM calcium chloride, 10 mM HEPES/Tris, pH7.5). […]

Structure (SMILES) | IC50
COc1ccc(Cc2ccccc2OC2OC(CO)C(F)C(O)C2O)cc1 (stereo not shown) [Example 1 of formula III] | 34 nM
CCc1ccc(Cc2ccccc2OC2OC(CO)C(F)C(O)C2O)cc1 (stereo not shown) [Example 20 of formula III] | 29 nM
COc1ccc(Cc2c(OC3OC(CO)C(F)C(O)C3O)n[nH]c2C(F)(F)F)cc1 (stereo not shown) [Example 5 of formula II] | 88 nM
CC(C)c1[nH]nc(OC2OC(CO)C(F)C(O)C2O)c1Cc1ccc(CCCC(=O)NC(CO)(CO)CO)cc1 (stereo not shown) [Example 21 of formula I] | 318 nM
